From patent US8192999B2, “Method for the identification of macromolecule targets of analytes” (priority 2005, dated 2012)

Test system: E. coli proteins
Test: Non-specific binding of MTX to proteins of E. coli cell lysate (HPLC co-fractionation)
Settings: MTX-spiked E. coli extract; FIG. 9

## CN(Cc1cnc2nc(N)nc(N)c2n1)c1ccc(C(=O)N[C@@H](CCC(=O)O)C(=O)O)cc1 [MTX, methotrexate]
  non-specific binding of the drug to E. coli proteins: no non-specific binding of the drug to any E. coli proteins was detected
